# Legend:
# [1] = Solubility of amphotericin B in 23 wt % triblock copolymer solution; format: physicochemical
# Experimental: Triblock copolymer of Example 2 (entry number 1) was used. The drug was mixed with the copolymer solution (23 wt % copolymer in water). The mixture was allowed to stand for 30 minutes before filtration.
# [2] = cited from earlier work
# [3] = Behaviour of the polymer solution in aqueous liquid at 35-42° C.; format: physicochemical; settings: copolymer with drug; between at least 35-42° C.
# Experimental: PEG (Mw=1450; 476.2 g) was dried under vacuum (1 mmHg) at 130° C. for 5 hours. D,L-Lactide (412.9 grams) and glycolide (110.9 grams) were added to the flask and heated to 145° C. to afford a homogenous solution. Polymerization was initiated by the addition of 250 mg stannous octoate to the reaction mixture. After maintaining the reaction for five hours at 145° C., the reaction was stopped and the flask was cooled to room temperature. Unreacted lactide and glycolide were removed by vacuum distillation. […] The copolymer was purified twice by dissolving in water to afford a 25% solution, and letting the solution stir overnight at room temperature followed by elevating the solution temperature to 70° C. to precipitate the polymer. Excess water was removed by freeze drying. […] The GPC was performed on two Phenogel columns (300×7.8), 500 Å, and a mixed bed, connected in series. Mobile phase was tetrahydrofuran. Calibration was with PEG standards. Detection was by refractive index.
# [4] = physchem
# Experimental: Triblock copolymers of Example 2 were used. The neat polymer and the drug were mixed and gently heated (ca. 50° C.) to completely dissolve the drug. Water was added to the mixture to afford a 23% by weight aqueous solution of the triblock copolymers. The solution was allowed to stand for 30 minutes before filtration (0.2 μm pore size filter).
# [5] = physchem; remark: listed apart in the source
# Experimental: Polymer solutions containing 23% by weight of the copolymer were prepared in water, and paclitaxel was added to the solution and the mixture was stirred for approximately 20 minutes.
state of polymer solution containing drug when mixed with an aqueous liquid [3],"solubility at 30 min ([4]; 25 °C, aqueous with cosolvent or surfactant or cyclodextrin, Drug Solubility)",Drug Solubility ([4]; 30 min),"solubility ([4]; water, water solubility)",increase of solubility [5],"solubility ([5]; aqueous with cosolvent or surfactant or cyclodextrin, thermodynamic from solid)",solubility ([5]; water),SMILES,"solubility in the aqueous triblock copolymer solution ([1]; 23 wt % copolymer of Example 2 entry number 1 in water, 30 minutes, filtered)",increase of solubility ([1]; copolymer solution versus pure water),reported solubility in pure water [2]
remained as free flowing liquids,1500 µg/mL,1570 µg/mL,10 µg/mL,,,,COC1=CC(=O)C[C@@H](C)[C@]12Oc1c(Cl)c(OC)cc(OC)c1C2=O [griseofulvin],,,
remained as a free flowing liquid,,,,at least 5000 fold,> 25000 µg/mL,~5 µg/mL,CC(=O)O[C@H]1C(=O)[C@@]2(C)[C@H]([C@H](OC(=O)c3ccccc3)[C@]3(O)C[C@H](OC(=O)[C@H](O)[C@@H](NC(=O)c4ccccc4)c4ccccc4)C(C)=C1C3(C)C)[C@]1(OC(C)=O)CO[C@@H]1C[C@@H]2O [paclitaxel],,,

SMILES,state of polymer solution containing drug when mixed with an aqueous liquid [3],"solubility at 30 min ([4]; 25 °C, aqueous with cosolvent or surfactant or cyclodextrin, Drug Solubility)",Drug Solubility ([4]; 30 min),"solubility ([4]; water, water solubility)",increase of solubility [5],"solubility ([5]; aqueous with cosolvent or surfactant or cyclodextrin, thermodynamic from solid)",solubility ([5]; water),"solubility in the aqueous triblock copolymer solution ([1]; 23 wt % copolymer of Example 2 entry number 1 in water, 30 minutes, filtered)",increase of solubility ([1]; copolymer solution versus pure water),reported solubility in pure water [2]
C[C@@H]1[C@H](O)[C@@H](C)/C=C/C=C/C=C/C=C/C=C/C=C/C=C/[C@H](O[C@@H]2O[C@H](C)[C@@H](O)[C@H](N)[C@@H]2O)C[C@@H]2O[C@](O)(C[C@@H](O)C[C@@H](O)[C@H](O)CC[C@@H](O)C[C@@H](O)CC(=O)O[C@H]1C)C[C@H](O)[C@H]2C(=O)O [amphotericin B],remained as a free flowing liquid,,,,,,,150 µg/mL,50 fold,3 µg/mL

# Reference: patent US20020192286A1, “Biodegradable triblock copolymers as solubilizing agents for drugs and method of use thereof” (Macromed, Incorporated, priority 2001, published 2002)
